Values quoted from earlier work in patent US9855513B2, “Method for producing concentrated aqueous solution of organic compound” (Kao Corporation, priority 2012, dated 2018).

Conditions: in a water of 100 g at 25° C.

solubility degree: ∞
Compound: OCC(O)CO [glycerol]
